Experimental data reported in patent US8236808B2, “Pyrazine derivatives as ENAC blockers” (Novartis AG, priority 2008, dated 2012).
Where a name gives a salt, the structure may show the parent alone.

What follows are molecules tested against T1, epithelial sodium channel (ENaC) (Homo sapiens, UniProt P37088+P51168+P51170) (assay: Short circuit current (ISC) measurements in human bronchial epithelial cells, inhibition of amiloride-sensitive ISC). Settings: inhibition of the amiloride-sensitive ISC; HBECs cultured at air-liquid interface, Ussing chamber, compound added to apical chamber.
T1 construct: host or cells: primary human bronchial epithelial cells (HBECs), differentiated at the air-liquid interface
T1 sequence (P37088 1-669): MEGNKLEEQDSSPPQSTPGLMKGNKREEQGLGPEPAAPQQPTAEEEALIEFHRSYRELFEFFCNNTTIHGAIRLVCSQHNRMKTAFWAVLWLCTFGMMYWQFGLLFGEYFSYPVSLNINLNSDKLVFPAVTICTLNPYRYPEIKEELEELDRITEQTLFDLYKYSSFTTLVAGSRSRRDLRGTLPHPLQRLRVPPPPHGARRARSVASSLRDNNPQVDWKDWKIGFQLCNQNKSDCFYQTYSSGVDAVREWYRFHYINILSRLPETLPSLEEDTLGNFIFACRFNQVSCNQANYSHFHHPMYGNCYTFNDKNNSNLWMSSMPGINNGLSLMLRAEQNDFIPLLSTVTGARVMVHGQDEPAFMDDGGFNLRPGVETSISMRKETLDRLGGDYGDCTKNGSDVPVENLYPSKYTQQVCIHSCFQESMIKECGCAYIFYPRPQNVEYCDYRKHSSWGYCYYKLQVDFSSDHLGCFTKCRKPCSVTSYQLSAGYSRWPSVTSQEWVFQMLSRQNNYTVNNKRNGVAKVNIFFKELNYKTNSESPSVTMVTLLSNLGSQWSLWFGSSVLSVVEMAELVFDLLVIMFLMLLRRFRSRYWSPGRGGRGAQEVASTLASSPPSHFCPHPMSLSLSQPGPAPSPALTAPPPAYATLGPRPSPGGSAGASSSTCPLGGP
T1 sequence (P51168 1-640): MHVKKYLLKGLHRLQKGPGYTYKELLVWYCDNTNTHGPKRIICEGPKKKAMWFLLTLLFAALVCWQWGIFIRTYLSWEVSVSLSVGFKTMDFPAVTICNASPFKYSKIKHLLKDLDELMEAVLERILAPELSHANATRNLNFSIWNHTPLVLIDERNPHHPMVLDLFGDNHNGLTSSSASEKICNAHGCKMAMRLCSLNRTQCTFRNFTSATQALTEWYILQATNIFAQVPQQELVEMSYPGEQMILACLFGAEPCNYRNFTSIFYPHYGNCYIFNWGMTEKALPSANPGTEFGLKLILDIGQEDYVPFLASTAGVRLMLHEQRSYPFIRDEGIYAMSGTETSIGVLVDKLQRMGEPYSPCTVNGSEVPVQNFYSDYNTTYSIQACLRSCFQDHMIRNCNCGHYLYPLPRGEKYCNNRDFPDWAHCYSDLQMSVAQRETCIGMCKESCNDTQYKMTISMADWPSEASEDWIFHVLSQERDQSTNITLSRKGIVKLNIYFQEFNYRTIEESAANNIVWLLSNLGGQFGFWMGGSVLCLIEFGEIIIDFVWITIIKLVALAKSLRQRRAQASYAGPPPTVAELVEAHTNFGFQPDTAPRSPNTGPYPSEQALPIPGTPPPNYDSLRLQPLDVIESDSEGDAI
T1 sequence (P51170 1-649): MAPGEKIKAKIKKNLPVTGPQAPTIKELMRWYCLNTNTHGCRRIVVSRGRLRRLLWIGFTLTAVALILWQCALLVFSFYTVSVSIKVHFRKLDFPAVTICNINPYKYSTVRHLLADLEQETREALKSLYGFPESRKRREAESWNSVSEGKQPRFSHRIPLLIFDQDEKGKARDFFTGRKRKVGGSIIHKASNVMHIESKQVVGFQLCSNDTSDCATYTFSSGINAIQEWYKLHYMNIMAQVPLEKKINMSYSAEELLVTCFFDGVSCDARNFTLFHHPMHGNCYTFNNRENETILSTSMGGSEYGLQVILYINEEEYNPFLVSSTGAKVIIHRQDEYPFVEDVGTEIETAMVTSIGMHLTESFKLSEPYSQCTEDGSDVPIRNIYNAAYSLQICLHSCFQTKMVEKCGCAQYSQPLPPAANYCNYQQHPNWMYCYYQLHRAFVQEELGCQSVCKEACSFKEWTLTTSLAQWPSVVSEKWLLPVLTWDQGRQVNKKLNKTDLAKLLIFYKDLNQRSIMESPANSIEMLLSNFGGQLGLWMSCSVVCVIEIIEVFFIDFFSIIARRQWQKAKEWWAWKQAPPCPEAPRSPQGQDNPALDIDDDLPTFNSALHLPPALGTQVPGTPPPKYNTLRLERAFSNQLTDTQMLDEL
Format: cell-based
Procedure: Compounds of formula (I), hereinafter referred to alternatively as “agents of the invention”, are useful as pharmaceuticals. In particular, the compounds have good ENaC blocker activity and may be tested in the following assays.
Human Bronchial Epithelial cells (HBECs) (Cambrex) were cultured under air-liquid interface conditions to provide a well differentiated mucociliary phenotype.
HBECs were cultured using a modification of the method described by Gray and colleagues (Gray et al., 1996). Cells were seeded in plastic T-162 flasks and were grown in bronchial epithelial cell growth medium (BEGM; Cambrex) supplemented with bovine pituitary extract (52 μg/mL), hydrocortisone (0.5 μg/mL), human recombinant epidermal growth factor (0.5 ng/mL), epinephrine (0.5 μg/mL), transferrin (10 μg/mL), insulin (5 μg/mL), retinoic acid (0.1 μg/mL), triiodothyronine ([…]), gentamycin (50 μg/mL) and amphotericin B (50 ng/mL). Medium was changed every 48 hours until cells were 90% confluent. Cells were then passaged and seeded (8.25×10^5 cells/insert) on polycarbonate Snapwell inserts (Costar) in differentiation media containing 50% DMEM in BEGM with the same supplements as above but without triiodothyronine and a final retinoic acid concentration of 50 nM (all-trans retinoic acid). Cells were maintained submerged for the first 7 days in culture, after which time they were exposed to an apical air interface for the remainder of the culture period. At this time, media was changed to DMEM:F12 media containing 2% v/v Ultroser G for the remainder of culture. Amphotericin B was removed from all media 3 feeds prior to use in the Ussing Chambers. Cells were used between days 7 and 21 after establishment of the apical-air interface. At all stages of culture, cells were maintained at 37° C. in 5% CO2 in an air incubator.
Snapwell inserts were mounted in Vertical Diffusion Chambers (Costar) and were bathed with continuously gassed Ringer solution (5% CO2 in O2; pH 7.4) maintained at 37° C. containing (in mM): 120 NaCl, 25 NaHCO3, 3.3 KH2PO4, 0.8 K2HPO4, 1.2 CaCl2, 1.2 MgCl2, and 10 glucose. The solution osmolarity was between 280 and 300 mOsmol/kg H2O for all physiological salt solutions used. Cells were voltage clamped to 0 mV (model EVC4000; WPI). RT was measured by applying a 1- or 2-mV pulse at 30-s intervals and calculating RT by Ohm's law. Data were recorded using a PowerLab workstation (ADInstruments).
Test compounds were prepared as a 10 mM stock solution in DMSO (95%). Serial 3-fold dilutions were freshly prepared in an appropriate vehicle (distilled H2O or Ringers solution). The initial concentration was added to the apical chamber as a 1000× concentrate in 5 μL, resulting in a final 1× concentration the 5 mL volume of the Ussing chamber. Subsequent additions of compound were added in a 3.3 μL volume of the 1000× serially diluted stock solution. At the completion of the concentration-response experiment, amiloride (10 μM) was added into the apical chamber to enable the total amiloride-sensitive current to be measured. An amiloride control IC50 was established at the start of each experiment.
Results are expressed as the mean % inhibition of the amiloride-sensitive ISC. Concentration-response curves were plotted and IC50 values generated using GraphPad Prism 3.02. Cell inserts were typically run in duplicate and the IC50 calculated on the mean % inhibition data.

SMILES | IC50 [nM]
C[N+](C)(CCCc1ccc(OCCCc2ccc(OC[C@@H](O)CO)cc2)cc1)CCNC(=O)c1nc(Cl)c(N)nc1N [Example 29, {2-[(3,5-Diamino-6-chloro-pyrazine-2-carbonyl)-amino]-ethyl}-[3-(4-{3-[4-((S)-2,3-dihydroxy-propoxy)-phenyl]-propoxy}-phenyl)-propyl]-dimethyl-ammonium bromide] | 25
COc1ccc(CCC[N+](CCCc2ccc(OC)cc2)(CCNC(=O)c2nc(Cl)c(N)nc2N)Cc2ccccc2)cc1 [Example 23, Benzyl-{2-[(3,5-diamino-6-chloro-pyrazine-2-carbonyl)-amino]-ethyl}-bis-[3-(4-methoxy-phenyl)-propyl]-ammonium trifluoroacetate] | 34
C[N+](CCCc1ccc(O)cc1)(CCCc1ccc(O)cc1)CCNC(=O)c1nc(Cl)c(N)nc1N [Example 122, {2-[(3,5-Diamino-6-chloro-pyrazine-2-carbonyl)-amino]-ethyl}-bis-[3-(4-hydroxy-phenyl)-propyl]-methyl-ammonium trifluoroacetate] | 130
COc1ccc(CCC[N+](CCCc2ccc(OC)cc2)(CCCc2ccc(OC)cc2)CCNC(=O)c2nc(Cl)c(N)nc2N)cc1 [Example 18, {2-[(3,5-Diamino-6-chloro-pyrazine-2-carbonyl)-amino]-ethyl}-tris-[3-(4-methoxy-phenyl)-propyl]-ammonium trifluoroacetate] | 37
CCOc1ccc(NC(=O)NCCCC[N+](C)(CCCc2ccc(OC)cc2)CCNC(=O)c2nc(Cl)c(N)nc2N)cc1Cl (centres unmarked) [Example 26, {4-[3-(3-Chloro-4-ethoxy-phenyl)-ureido]-butyl}-{2-[(3,5-diamino-6-chloro-pyrazine-2-carbonyl)-amino]-ethyl}-[3-(4-methoxy-phenyl)-propyl]-methyl-ammonium bromide] | 12
C=CC[N+](CCCc1ccc(OC)cc1)(CCCc1ccc(OC)cc1)CCNC(=O)c1nc(Cl)c(N)nc1N [Example 17, Allyl-{2-[(3,5-diamino-6-chloro-pyrazine-2-carbonyl)-amino]-ethyl}-bis-[3-(4-methoxy-phenyl)-propyl]-ammonium trifluoroacetate] | 7.5

More lines, now with the values ahead:

IC50 [nM] | SMILES
1490 | COC(=O)COc1ccc(CCC[N+](C)(C)CCNC(=O)c2nc(Cl)c(N)nc2N)cc1 [Example 132, {2-[(3,5-Diamino-6-chloro-pyrazine-2-carbonyl)-amino]-ethyl}-[3-(4-methoxycarbonylmethoxy-phenyl)-propyl]-dimethyl-ammonium trifluoroacetate]
6520 | C[N+](C)(CCCc1ccc(OCC(=O)O)cc1)CCNC(=O)c1nc(Cl)c(N)nc1N [Example 133, [3-(4-Carboxymethoxy-phenyl)-propyl]-{2-[(3,5-diamino-6-chloro-pyrazine-2-carbonyl)-amino]-ethyl}-dimethyl-ammonium trifluoroacetate]
150 | C[N+](C)(CCNC(=O)CCc1ccc(Cl)cc1)CCNC(=O)c1nc(Cl)c(N)nc1N [Example 33, {2-[3-(4-Chloro-phenyl)-propionylamino]-ethyl}-{2-[(3,5-diamino-6-chloro-pyrazine-2-carbonyl)-amino]-ethyl}-dimethyl-ammonium hexafluorophosphate]
51 | COc1ccc(CCC[N+](CCCc2ccc(OC)cc2)(CCNC(=O)c2nc(Cl)c(N)nc2N)CC(N)=O)cc1 [Example 22, Carbamoylmethyl-{2-[(3,5-diamino-6-chloro-pyrazine-2-carbonyl)-amino]-ethyl}-bis-[3-(4-methoxy-phenyl)-propyl]-ammonium trifluoroacetate]
1140 | C[N+](C)(CCNC(=O)c1nc(Cl)c(N)nc1N)CCc1ccccc1 [Example 129, {2-[(3,5-Diamino-6-chloro-pyrazine-2-carbonyl)-amino]-ethyl}-dimethyl-phenethyl-ammonium trifluoroacetate]
540 | C[N+](C)(CCNC(=O)c1nc(Cl)c(N)nc1N)CCNS(=O)(=O)Cc1ccc(Cl)cc1 [Example 108, [2-(4-Chloro-phenylmethanesulfonylamino)-ethyl]-{2-[(3,5-diamino-6-chloro-pyrazine-2-carbonyl)-amino]-ethyl}-dimethyl-ammonium bromide]
420 | C[N+](C)(CCCNC(=O)Cc1ccc(Cl)cc1)CCNC(=O)c1nc(Cl)c(N)nc1N [Example 51, {3-[2-(4-Chloro-phenyl)-acetylamino]-propyl}-{2-[(3,5-diamino-6-chloro-pyrazine-2-carbonyl)-amino]-ethyl}-dimethyl-ammonium hexafluorophosphate]
43 | C[N+](C)(CCCCNC(=O)Cc1ccc(OCc2ccccc2)cc1)CCNC(=O)c1nc(Cl)c(N)nc1N [Example 63, {4-[2-(4-Benzyloxy-phenyl)-acetylamino]-butyl}-{2-[(3,5-diamino-6-chloro-pyrazine-2-carbonyl)-amino]-ethyl}-dimethyl-ammonium bromide]
